The source of these data is patent publication US20200131454A1, “ALCOHOL CONTAINING BIOFIILM-INHIBITING NON-ANTIMICROBIAL CLEANSING COMPOSITION” (GOJO Industries, Inc., priority 2018, published 2020).

Data set [1] can be described thus: Forearm controlled application test (FCAT), skin hydration by Corneometer. In kind it is in vivo, human. As to the method: (§1) Topical compositions were tested on skin samples for their ability to improve or maintain skin hydration and limit transepidermal water loss (TEWL). Measurement of the TEWL, expressed in grams per square meter and per hour, is used for studying the water barrier function of the human skin. The more perfect the skin protective coat, the higher the water content and the lower the TEWL. For each of the tests, a negative control was used, which included treatment with 8% SLS. An untreated skin sample was also tested for comparison. The tests were performed using the forearm controlled application test (FCAT) methodology. The various samples were applied to test sites on a forearm over the course of several days. On each day, up to six applications were made and the change in TEWL and hydration levels were recorded. The hydration levels were measured using a Corneometer® based on capacitance measurement of a dielectric medium. The Corneometer® measures the change in the dielectric constant due to skin surface hydration changing the capacitance of a precision capacitor. The measurement can detect even slight changes in the hydration level.
The change in TEWL and hydration levels represent the change observed for that particular sample compared to a baseline (the transepidermal water content or hydration level prior to treatment). […]

Data set [2] can be described thus: Forearm controlled application test (FCAT), transepidermal water loss (TEWL). It is filed as in vivo, human. As to the method: as §1, with “level. The change in TEWL and hydration levels represent the change observed for that particular sample compared to a baseline (the transepidermal water content or hydration level prior to treatment). […]” for “level.”

As to `CCCCCCCCCCCCOS(=O)(=O)[O-].[Na+]` [negative control, SLS], the hydration levels result in data set [1] (Example 1, FIG. 5, change compared to baseline) is “lowest hydration levels”. The “change in hydration levels” value in data set [1] (Example 2, FIG. 8, wet and dry application, 3 and 5 days of treatment) is “significant reduction in hydration level”. For the same compound, the TEWL entry in data set [2] (Example 1, FIG. 6, change compared to baseline) is given as “highest TEWL”. For the same compound, the “change in TEWL” value in data set [2] (Example 2, FIG. 7, wet and dry application, 3 and 5 days of treatment) is given as “significant TEWL”.
